Source: patent publication US7205382B2, “Peptides, the production and use thereof for binding immunoglobulins” (Fresenius Medical Care Affina GmbH, priority 2000, dated 2007)
Bridge positions count the residues as written; N and C are the ends. Square brackets hold non-standard residues; d marks the D form. Ends that are not written are not given here. cellulose = not defined here; βAla = NCCC(=O)O

Assays:
Format in all cases: binding
Set-up in all cases: key: No binding of immunoglobulin for the defined peptide variant, detection negative: 0; Binding of immunoglobulin for the defined peptide variant, detection positive: +
serum albumin = assay: Cellulose-immobilized 13-mer peptide variants incubated with serum albumin (negative control), anti-human IgG-AP detection; conditions: blocking buffer without addition, 3 h room temperature
Method in brief: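 Spot membrane, (βA)(βA) spacer; T-TBS pH 8.0 wash, block 5% saccharose/4% BSA. 3 h RT with IgG-Fc 1 μg/ml, serum 1:10,000, or block buffer only (specificity control). 3× wash, AP-anti-human IgG 1.2 μg/ml, NBT/BCIP in pH 9.5 buffer.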

[1] = test system: immunoglobulins in human plasma; assay: Cellulose-immobilized 13-mer peptide variants incubated with human plasma, anti-human IgG-AP detection; conditions: human plasma as sample, diluted 1:10,000 in blocking buffer, 3 h room temperature
Method in brief: (§1)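 SPOT-type 13-mer peptides on cellulose with a (βA)(βA) spacer, blocked in 5% saccharose/4% BSA in T-TBS pH 8.0. Incubated 3 h at RT with human IgG-Fc (1 μg/ml) or human serum/plasma (1:10,000), or with blocking buffer alone as the albumin specificity control. Bound IgG detected with AP-anti-human IgG (1.2 μg/ml) and NBT/BCIP colorimetric development at pH 9.5.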

human IgG-Fc = assay: Cellulose-immobilized 13-mer peptide variants incubated with human IgG-Fc, anti-human IgG-AP detection; conditions: IgG-Fc 1 μg/ml in blocking buffer, 3 h room temperature
Method in brief: as §1

Substance | Result for incubation with serum albumin (immunoglobulin binding detection) (serum albumin) | Result for incubation with human plasma (immunoglobulin binding detection) [1] | Result for incubation with human IgG-Fc (immunoglobulin binding detection) (human IgG-Fc)
08A: cellulose-bound 13-mer variant DCAWHLGALVWCT-(βA)(βA) (DCAWHLGALVWCT-{βAla-βAla-cellulose}; disulfide 2-12 (inferred); not fully specified (N-terminus); printed as DCAWHLGALVWCT-(βA)(βA); reading uncertain) | 0 | 0 | +
02Q: cellulose-bound 13-mer variant DQAWHLGELVWCT-(βA)(βA) (DQAWHLGELVWCT[βAla][βAla]; not fully specified; printed as DQAWHLGELVWCT-(βA)(βA); also: cellulose-bound) | 0 | 0 | 0
11R: cellulose-bound 13-mer variant DCAWHLGELVRCT-(βA)(βA) | 0 | 0 | 0
11Q: cellulose-bound 13-mer variant DCAWHLGELVQCT-(βA)(βA) | 0 | 0 | 0
06C: cellulose-bound 13-mer variant DCAWHCGELVWCT-(βA)(βA) (DCAWHCGELVWCT[βAla][βAla]; not fully specified (N-terminus); printed as DCAWHCGELVWCT-(βA)(βA); cysteine pairing not given here; also: cellulose-bound) | 0 | 0 | 0
05Y: cellulose-bound 13-mer variant DCAWYLGELVWCT-(βA)(βA) (DCAWYLGELVWCT[βAla][βAla]; disulfide 2-12 (inferred); not fully specified (N-terminus); printed as DCAWYLGELVWCT-(βA)(βA); also: cellulose-bound) | 0 | 0 | 0
06W: cellulose-bound 13-mer variant DCAWHWGELVWCT-(βA)(βA) (DCAWHWGELVWCT-{βAla-βAla-cellulose}; disulfide 2-12 (inferred); not fully specified (N-terminus); printed as DCAWHWGELVWCT-(βA)(βA); reading uncertain) | 0 | 0 | 0
08P: cellulose-bound 13-mer variant DCAWHLGPLVWCT-(βA)(βA) (DCAWHLGPLVWCT-{βAla-βAla-cellulose}; disulfide 2-12 (inferred); not fully specified (N-terminus); printed as DCAWHLGPLVWCT-(βA)(βA); reading uncertain) | 0 | 0 | 0
10Q: cellulose-bound 13-mer variant DCAWHLGELQWCT-(βA)(βA) (DCAWHLGELQWCT-{βAla-βAla-cellulose}; disulfide 2-12 (inferred); reading uncertain; also: printed as DCAWHLGELQWCT-(βA)(βA)) | 0 | 0 | 0
07D: cellulose-bound 13-mer variant DCAWHLDELVWCT-(βA)(βA) (DCAWHLDELVWCT-{βAla-βAla-cellulose}; disulfide 2-12 (inferred); not fully specified (N-terminus); printed as DCAWHLDELVWCT-(βA)(βA); reading uncertain) | 0 | + | +
12I: cellulose-bound 13-mer variant DCAWHLGELVWIT-(βA)(βA) (DCAWHLGELVWIT-{βAla-βAla-cellulose}; not fully specified; printed as DCAWHLGELVWIT-(βA)(βA); reading uncertain) | 0 | 0 | 0
03I: cellulose-bound 13-mer variant DCIWHLGELVWCT-(βA)(βA) (DCIWHLGELVWCT-{βAla-βAla-cellulose}; disulfide 2-12 (inferred); reading uncertain; also: printed as DCIWHLGELVWCT-(βA)(βA)) | 0 | 0 | 0
03R: cellulose-bound 13-mer variant DCRWHLGELVWCT-(βA)(βA) (DCRWHLGELVWCT-{βAla-βAla-cellulose}; disulfide 2-12 (inferred); reading uncertain; also: printed as DCRWHLGELVWCT-(βA)(βA)) | 0 | 0 | 0
06T: cellulose-bound 13-mer variant DCAWHTGELVWCT-(βA)(βA) (DCAWHTGELVWCT-{βAla-βAla-cellulose}; disulfide 2-12 (inferred); not fully specified (N-terminus); printed as DCAWHTGELVWCT-(βA)(βA); reading uncertain) | 0 | 0 | +
08I: cellulose-bound 13-mer variant DCAWHLGILVWCT-(βA)(βA) (DCAWHLGILVWCT-{βAla-βAla-cellulose}; disulfide 2-12 (inferred); not fully specified (N-terminus); printed as DCAWHLGILVWCT-(βA)(βA); reading uncertain) | 0 | 0 | 0
